The subject of one assay is Pseudomonas aeruginosa. The assay is described as follows: Antibacterial activity against multidrug-resistant Pseudomonas aeruginosa CCARM 2095 assessed as reduction in bacterial growth incubated for 72 hrs by spectrophotometry. In kind it is functional. Conditions: CCARM 2095, 72 h.
For assay [1], the system named is Staphylococcus aureus. The assay is described as follows: Antibacterial activity against methicillin-resistant Staphylococcus aureus CCARM 3089 assessed as reduction in bacterial growth incubated for 72 hrs by spectrophotometry. To be noted: CCARM 3089, 72 h. In kind it is functional.
Assay [2] deals with Staphylococcus aureus. Kind of assay: Induction of cytoplasmic membrane depolarization in Staphylococcus aureus at 2 times of MIC for a period of 600 sec by DiSC3-5-fluorescence based assay. In kind it is functional, organism-based.
The subject of the next assay is Escherichia coli. The assay is described as follows: Induction of membrane integrity disruption in Escherichia coli at 2 times of MIC by propidium iodide staining based flow cytometry relative to control (reference value: 2.97 %). The assay is classed as functional. (In flow cytometry, cells or beads pass a laser one at a time.)
Another assay deals with Enterococcus faecium. Kind of assay: Antibacterial activity against vancomycin-resistant Enterococcus faecium ATCC 51559 assessed as reduction in bacterial growth incubated for 18 hrs by spectrophotometry based microtiter broth dilution method. In kind it is functional. To be noted: ATCC 51559, 18 h. In general terms: Dilution methods test growth across graded concentrations, often in twofold steps.

The subject of assay [3] is Staphylococcus aureus. Kind of assay: Induction of cytoplasmic membrane depolarization in Staphylococcus aureus at 2 times of MIC within 4 mins by SYTOX green-based assay. The assay is classed as functional, organism-based.

In brackets after ≈: the same amount, converted by molar mass. Activity calls are given as the source filed them. The rule behind the calls is not given here.

Consider 4 compounds from ChEMBL document CHEMBL4406836, “The design of a cell-selective fowlicidin-1-derived peptide with both antimicrobial and anti-inflammatory activities” (Eur J Med Chem, 2019).

In general, MIC refers to the lowest concentration found to suppress growth.

For `O=C(N[C@H](CO)[C@H](O)c1ccc([N+](=O)[O-])cc1)C(Cl)Cl` [CHLORAMPHENICOL], the results for the minimal inhibitory concentration (MIC) with Pseudomonas aeruginosa and in the assay on Staphylococcus aureus [1] were 1020 µM (≈ 331 µg/mL) and 128 µM (≈ 41.4 µg/mL), respectively.

As for `Cc1onc(-c2ccccc2)c1C(=O)N[C@@H]1C(=O)N2[C@@H]1SC(C)(C)[C@@H]2C(=O)O` [OXACILLIN], the MIC in the assay with Pseudomonas aeruginosa and with Staphylococcus aureus [1] was 512 µM (≈ 206 µg/mL) each time.

Take `CC[C@H](C)[C@H](NC(=O)CN)C(=O)NCC(=O)N[C@@H](C)C(=O)N[C@H](C(=O)N[C@@H](CC(C)C)C(=O)N[C@@H](CCCCN)C(=O)N[C@H](C(=O)N[C@@H](CC(C)C)C(=O)N[C@H](C(=O)N[C@H](C(=O)NCC(=O)N[C@@H](CC(C)C)C(=O)N1CCC[C@H]1C(=O)N[C@@H](C)C(=O)N[C@@H](CC(C)C)C(=O)N[C@H](C(=O)N[C@@H](CO)C(=O)N[C@@H](Cc1c[nH]c2ccccc12)C(=O)N[C@H](C(=O)N[C@@H](CCCCN)C(=O)N[C@@H](CCCNC(=N)N)C(=O)N[C@@H](CCCCN)C(=O)N[C@@H](CCCNC(=N)N)C(=O)N[C@@H](CCC(N)=O)C(=O)N[C@@H](CCC(N)=O)C(N)=O)[C@@H](C)CC)[C@@H](C)CC)[C@@H](C)O)[C@@H](C)O)C(C)C)C(C)C` [MELITTIN]: the result in the assay on Staphylococcus aureus [2] and in the assay with Staphylococcus aureus [3] was Active. Also, the Activity with Escherichia coli turned out to be 75.38%. The minimal inhibitory concentration (MIC) with Enterococcus faecium came to 8 µM (≈ 22.8 µg/mL).

In the case of `O=C(O)c1cn(C2CC2)c2cc(N3CCNCC3)c(F)cc2c1=O` [CIPROFLOXACIN], the MIC in the assay on Pseudomonas aeruginosa is 512 µM (≈ 170 µg/mL); in the assay with Staphylococcus aureus [1] it was 1020 µM (≈ 339 µg/mL).
